Active and inactive are the calls of the source.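 The calls were made as follows: active = compounds giving half or more protection of infected cells from virus-caused growth loss, again on retest; inactive = the rest.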
System: CEM cells HIV-1 protection, formazan growth assay
Assay: NCI AIDS Antiviral Assay
Details: for IC50: measured here: growth of uninfected CEM cells
Description: The ability of compounds to protect human CEM cells from HIV-1 infection is measured as a screen for new compounds capable of inhibiting the HIV virus. Five concentrations of drug were tested on uninfected and infected cells and cell growth was measured using a soluble formazan assay. […] Compounds that provided at least 50% protection were retested. Compounds that provided at least 50% protection on retest were listed as moderately active. Compounds that reproducibly provided 100% protection were listed as confirmed active. […] Note that the inability to provide protection could be due to toxicity.

Row | SMILES | EC50 [µM] | IC50 [µM] | outcome
1 | Clc1nc(Cl)nc(-c2ccccc2)n1 | > 200 | > 200 | –
2 | COC(=O)C1=C2Nc3ccccc3[C@@]23CCN(Cc2ccccc2)[C@H]3CC1[C@H](O)CO (stereo partly drawn) | > 148 | 83.2 | –
3 | NC(=O)CNC(=O)c1ccc(NC(=O)c2ccccc2SC(=O)CCCC[n+]2ccccc2)cc1 | 15.8 | 50.1 | –
4 | O=[N+]([O-])/C(C(Cl)=C(Cl)Cl)=C(/Nc1ccccc1)SCc1ccccc1 | > 200 | 38 | –
5 | CC1=NN(c2ccccc2)C(=O)C1N=Nc1ccc(Br)cc1C (stereo not drawn) | > 17.4 | > 17.4 | –
6 | CC(C)C1=CC2C3C(=O)NC(=O)C3C1C1C3C(=O)NC(=O)C3C21 (stereo not drawn) | > 794 | > 794 | –
7 | CCCCC(C=O)(C=C=C(C)C)CC (stereo not drawn) | > 339 | 34.7 | –
8 | O=C(NO)c1cccc(OCc2ccc(Br)cc2)c1 | > 200 | 9.12 | –
9 | COC(=O)C1(O)CC(=O)CCC1c1ccc(OC)cc1 (stereo not drawn) | > 275 | > 275 | –
10 | CCOC(=O)CC[P+](c1ccccc1)(c1ccccc1)c1ccccc1 | > 200 | 21.4 | –
11 | C=CCc1cccc(/C(O)=C/C(=O)/C=C/c2ccccc2Cl)c1O | > 200 | 35.5 | –
12 | COC(=O)CSc1nc2[nH]c(SC)c(C(N)=O)c2c(=O)n1-c1ccccc1 | > 200 | > 200 | –
13 | CC(=O)OCc1cn(S(=O)(=O)c2ccc(C)cc2)cn1 | > 200 | 24 | –
14 | CC(C)(C)N=CN1C=Cc2nc3ccccc3cc2C1 | – | – | inactive
15 | CC1CCCN2C(=O)CN(CCc3ccccc3)CC(=O)N12 (stereo not drawn) | – | – | inactive
16 | Fc1cccc2c(SCc3ccc(Cl)cc3Cl)cnnc12 | > 15.5 | > 15.5 | –
17 | O=C1CC(O)(c2ccccc2)C(c2ccccc2)=C1c1ccccc1 (stereo not drawn) | – | – | inactive
18 | COc1ccc(/C=C(/C#N)c2ccccc2)cc1 | > 200 | 2.09 | –
19 | CC1(C)CCc2cc3c(cc2O1)OC(C)(C)C1c2cc(O)c(OCc4ccccc4)cc2OC31 (stereo not drawn) | > 200 | 61.7 | –
20 | CSC1=Nc2ccccc2-c2nc3ccccc3cc2C1 | – | – | inactive
21 | COC(=O)C1=CC2OC13CC1CCC3(C2=O)C1(C)C (stereo not drawn) | – | – | inactive
22 | N#CI1OC(C(F)(F)F)(C(F)(F)F)c2ccccc21 | > 200 | 9.55 | –

Row | SMILES | EC50 [µM] | IC50 [µM] | outcome
23 | CC(C)(C)[Si](C)(C)OCC1OC(n2cnc3c(=O)[nH]c(N)nc32)C(O[Si](C)(C)C(C)(C)C)C1O[Si](C)(C)C(C)(C)C (stereo not drawn) | > 200 | 4.17 | –
24 | CCCCN(CCCC)CCCn1cnc2ncccc2c1=O | – | – | inactive
25 | CCOC(=O)CC[C@H](NC(=O)c1[nH]cnc1/N=N/N(C)C)C(=O)OCC | > 676 | 339 | –
26 | O=C(NC1CN2CCC1CC2)C(c1ccc(F)cc1)c1ccc(F)cc1 (stereo not drawn) | > 200 | 5.37 | –
27 | S=C1CC(c2ccccc2)Sc2ccccc2N1 (stereo not drawn) | > 200 | 95.5 | –
28 | COC1(OC)CCCc2c1no[n+]2[O-] | > 200 | > 200 | –
29 | CN1c2ccccc2S(=O)(=O)n2c(COc3ccc(Cl)cc3)nnc21 | > 200 | > 200 | –
30 | COc1cc(O)c(C(=O)c2ccccc2)cc1S(=O)(=O)O | > 776 | > 776 | –
31 | CC1C[C@@]23C4CCCN2CC2OC2[C@@]13C1CC4OC1=O (stereo partly drawn) | > 182 | > 182 | –
32 | CCN(CC)CCC(=O)c1ccc(Oc2ccc(C)cc2)cc1 | > 200 | 28.8 | –
33 | Cn1c(=O)c(C(c2ccccc2)c2c(O)c3ccccc3n(C)c2=O)c(O)c2ccccc21 | > 22.9 | > 22.9 | –
34 | CC(=O)NNc1nc(C)c(C(/C=C/c2ccc([N+](=O)[O-])cc2)=N/NC(N)=S)s1 | > 69.2 | > 69.2 | –
35 | CC1=C(C(=O)Nc2ccc([N+](=O)[O-])cc2)C(c2ccccc2F)C(C(=O)Nc2ccc([N+](=O)[O-])cc2)=C(C)N1 | > 13.5 | > 13.5 | –
36 | C1CSCCSCCCSCCSCCCSCCSC1 | > 200 | > 200 | –
37 | CC(C)CCN=c1cc2n(-c3ccc(Cl)cc3)c3ccccc3nc-2cc1Nc1ccc(Cl)cc1 | – | – | inactive
38 | CCC(=O)Oc1ccc2c(=O)c(-c3ccc(OC)cc3)c(CC)oc2c1 | > 200 | 25.1 | –
39 | Cc1cc([N+](=O)[O-])c(C)c2c1[nH]c1ccc(Cl)cc12 | > 10 | > 10 | –
40 | O=c1sc2ncccc2n1-c1ccc([N+](=O)[O-])cn1 | > 91.2 | > 91.2 | –
41 | Nc1nc(CCC(=O)Nc2cccc(C(F)(F)F)c2)cc(-c2ccc3ccccc3c2)n1 | > 575 | > 575 | –
42 | CCCCCCC(=O)C/C(=N/NC(N)=S)C(=O)NC1C2CC3CC(C2)CC1C3 (stereo not drawn) | > 219 | > 219 | –
43 | COc1cc(C2c3cc4c(cc3OC(NNS(=O)(=O)c3ccc(C)cc3)C2C)OCO4)cc(OC)c1OC (stereo not drawn) | > 20 | 0.372 | –
44 | FC(F)(F)c1cccc(N2NC(=S)N3C=CC=CC32)c1 (stereo not drawn) | > 83.2 | > 83.2 | –

Row | SMILES | EC50 [µM] | IC50 [µM] | outcome
45 | COc1ccc(C2C(Cl)C(=O)N2NC(=O)c2ccc(N)cc2)cc1 (stereo not drawn) | > 200 | > 200 | –
46 | O=C(Nc1ccc(Cl)cc1)c1cc(S(=O)(=O)Nc2nc3ncccc3[nH]2)c(SSc2cc(Cl)c(C(=O)Nc3ccc(Cl)cc3)cc2S(=O)(=O)Nc2nc3ncccc3[nH]2)cc1Cl | > 200 | > 200 | –
47 | COCN(C)c1nc(N(C)C)nc(N(C)C)n1 | > 100 | 70.8 | –
48 | N=C1N(c2ccccc2)C(=S)C(=Nc2ccccc2)N1c1ccccc1 | > 200 | 3.89 | –
49 | C=C1CCC(OC(C)=O)C2(C)C(OC(C)=O)CC3OC3(C)C2C(OC(C)=O)C2C(C)C(=O)OC2C1Cl (stereo not drawn) | > 200 | > 200 | –
50 | Nc1ccccc1SSc1ccccc1C(=O)O | 35.5 | 41.7 | –
51 | COc1cnc([C@H]2CCC3[C@@H]4CC=C5C[C@@H](OC(=O)CCC(=O)O)CC[C@]5(C)C4CC[C@@]32C)s1 (stereo partly drawn) | > 51.3 | 29.5 | –
52 | CC(C)(C)OC(=O)NC(CSSCC(NC(=O)OC(C)(C)C)C(=O)O)C(=O)O (stereo not drawn) | > 200 | > 200 | –
53 | O=[N+]([O-])c1cc(I)cc(/C=N/NS(=O)(=O)c2ccc(F)cc2)c1O | > 389 | 67.6 | –
54 | COc1cc(C2c3cc4c(cc3OC(NN=C(C)C)C2C)OCO4)cc(OC)c1O (stereo not drawn) | > 200 | 5.5 | –
55 | Clc1ccc(-c2nnc3c4nnc(-c5ccc(Cl)cc5Cl)n4c4ccccc4n23)c(Cl)c1 | – | – | inactive
56 | O=C(NC1(C(=O)O)CC1c1ccccc1)c1ccccc1 (stereo not drawn) | > 200 | > 200 | –
57 | CC1CC(NN(C)C)=C(C#N)C1(C#N)C#N (stereo not drawn) | > 200 | 11.7 | –
58 | CCNC(=O)C(O)C1(O)CCC2[C@@H]3CCC4=CC(=O)C=C[C@]4(C)C3C(O)C[C@@]21C (stereo partly drawn) | – | – | inactive
59 | COc1ccc(OC2(c3cc(OC)ccc3OC)OC(=O)c3ccccc32)cc1 (stereo not drawn) | > 13.2 | > 13.2 | –
60 | C=CC(O)C#Cc1cnc(OC)nc1OC (stereo not drawn) | – | – | inactive
61 | CCOC(=O)C1(C(=O)OCC)CSC1 | > 309 | > 309 | –
62 | CCOC(=O)c1ccc(CSc2ccc(Cl)cc2)c([N+](=O)[O-])c1 | > 102 | > 102 | –
63 | CCCCCCCCOc1ccc(C(=O)c2ccccc2)c(O)c1 | > 200 | 95.5 | –
64 | CCCC(CCC)C(=O)[O-].CCCC(CCC)C(=O)[O-].CCCC(CCC)C(=O)[O-].CCCC(CCC)C(=O)[O-].[Cu+2].[Cu+2] | > 50.1 | 7.41 | –
